In the supplement of paper PMC11061612:

Legend:
[1] = system: RCC-JW (Kidney Carcinoma); assay: Bliss excess, mean over the matrix (fraction); higher = more synergy
In short: (§1)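 Bliss excess equals the observed combination effect minus the expected value EA + EB − EA·EB, where EA and EB are the effects of each agent alone. Combination Emax is the second-highest inhibition within the matrix. Inhibition was scaled from CellTiter-Glo 2.0 luminescence, with 0 set by vehicle wells and 1 by blank wells, after 72 hours of two-drug dosing of cells plated in 1536-well plates.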

[2] = system: SNU-407 (Colorectal Carcinoma); assay: as above
In short: as §1

[3] = system: P32-ISH (Burkitt's Lymphoma); assay: as above
In short: as §1

[4] = system: NAMALWA (Burkitt's Lymphoma); assay: as above
In short: as §1

[5] = system: MM1S (Plasma Cell Myeloma); assay: as above
In short: as §1

[6] = system: NCI-H1963 (Small Cell Lung Carcinoma); assay: as above
In short: as §1

[7] = system: MOLP-8 (Plasma Cell Myeloma); assay: as above
In short: as §1

[8] = system: ZR-75-30 (Breast Carcinoma); assay: as above
In short: as §1

[9] = system: LS-1034 (Colorectal Carcinoma); assay: as above
In short: as §1

[10] = system: NMC-G1 (Low Grade Glioma); assay: as above
In short: as §1

[11] = system: OAW-28 (Ovarian Carcinoma); assay: as above
In short: as §1

[12] = system: BxPC-3 (Pancreatic Carcinoma); assay: as above
In short: as §1

[13] = system: SCC-4 (Oral Cavity Carcinoma); assay: as above
In short: as §1

[14] = system: SiHa (Cervical Carcinoma); assay: as above
In short: as §1

[15] = system: COR-L88 (Small Cell Lung Carcinoma); assay: as above
In short: as §1

[16] = system: GAK (Melanoma); assay: as above
In short: as §1

[17] = system: P30-OHK (B-Lymphoblastic Leukemia); assay: as above
In short: as §1

[18] = system: IA-LM (Non-Small Cell Lung Carcinoma); assay: combination Emax (second highest fraction inhibited in the dose matrix, 72 h); higher = more inhibition; extreme values may be limits of the assay
In short: as §1

[19] = system: NCI-H1341 (Small Cell Lung Carcinoma); assay: as above
In short: as §1

[20] = system: TUR (Acute Myeloid Leukemia); assay: as above
In short: as §1

Row | SMILES | Bliss excess [1] | Bliss excess [2] | Bliss excess [3] | Bliss excess [4] | Bliss excess [5] | Bliss excess [6] | Bliss excess [7] | Bliss excess [8] | Bliss excess [9] | Bliss excess [10] | Bliss excess [11] | Bliss excess [12] | Bliss excess [13] | Bliss excess [14] | Bliss excess [15] | Bliss excess [16] | Bliss excess [17] | combination Emax [18] | combination Emax [19] | combination Emax [20]
1 | C[C@@H]1COCCN1c1cc(C2([S@](C)(=N)=O)CC2)nc(-c2ccnc3[nH]ccc23)n1 [AZD6738] + O=C(c1cc(Cc2n[nH]c(=O)c3ccccc23)ccc1F)N1CCN(C(=O)C2CC2)CC1 [Olaparib] (first compound max 10 µM, 7x7, partner max 10 µM) | 0.0465 | -0.0323 | -0.0424 | -0.0187 | -0.0388 | 0.0725 | 0.003 | -0.0408 | -0.0391 | 0.0071 | -0.0159 | 0.0231 | 0.059 | 0.0106 | -0.12 | 0.0019 | 0.0469 | 0.399 | 0.755 | 0.907
2 | Cc1cc2ncnn2cc1Nc1ncc2c(n1)n(C1CCOCC1)c(=O)n2C [AZD7648] + C=CCn1c(=O)c2cnc(Nc3ccc(N4CCN(C)CC4)cc3)nc2n1-c1cccc(C(C)(C)O)n1 [AZD1775] (first compound max 10 µM, partner max 1 µM) | -0.0102 | 0.0134 | -0.0011 | -0.0101 | -0.0401 | 0.0345 | 0.0123 | -0.0678 | -0.0645 | 0.0106 | -0.0066 | -0.0502 | -0.0714 | 0.0306 | -0.0543 | -0.0275 | 0.0014 | 0.42 | 0.69 | 0.736
3 | Cc1cc2ncnn2cc1Nc1ncc2c(n1)n(C1CCOCC1)c(=O)n2C [AZD7648] + CCN(CCO)CCCOc1ccc2c(Nc3cc(CC(=O)Nc4cccc(F)c4)[nH]n3)ncnc2c1 [AZD2811] (first compound max 10 µM, 7x7, partner max 1 µM) | -0.011 | 0.023 | -0.0367 | 0.114 | 0.0333 | -0.0146 | 0.0616 | -0.0449 | 0.0104 | -0.0407 | 0.0284 | -0.0052 | -0.0526 | 0.0278 | 0.0077 | -0.035 | -0.0267 | 0.268 | 0.371 | 0.284
4 | Cc1cc2ncnn2cc1Nc1ncc2c(n1)n(C1CCOCC1)c(=O)n2C [AZD7648] + CN(C)CCCOc1ccc(-c2ccc3ncc4c(c3c2)n(C2CCOCC2)c(=O)n4C)cn1 [AZD0156] (first compound max 10 µM, 7x7, partner max 1 µM) | -0.0158 | -0.0385 | 0.0153 | -0.0224 | 0.0196 | 0.0494 | 0.0712 | -0.0321 | -0.0187 | -0.0497 | -0.0115 | -0.0034 | -0.0164 | -0.0074 | -0.0326 | 0.0232 | 0.0194 | 0.35 | 0.34 | 0.164
5 | Cc1cc2ncnn2cc1Nc1ncc2c(n1)n(C1CCOCC1)c(=O)n2C [AZD7648] + C[C@@H]1COCCN1C2=NC(=NC(=C2)C3(CC3)[S@](=N)(=O)C)C4=C5C=CNC5=NC=C4 [AZD6738] (first compound max 10 µM, 7x7, partner max 10 µM) | 0.0176 | -0.0207 | -0.0029 | -0.0089 | 0.014 | 0.0138 | 0.0234 | -0.0224 | 0.0327 | 0.0004 | 0.033 | 0.0044 | -0.025 | 0.0466 | 0.0291 | 0.0104 | 0.0253 | 0.402 | 0.801 | 0.907
6 | Cc1cc2ncnn2cc1Nc1ncc2c(n1)n(C1CCOCC1)c(=O)n2C [AZD7648] + O=C(c1cc(Cc2n[nH]c(=O)c3ccccc23)ccc1F)N1CCN(C(=O)C2CC2)CC1 [Olaparib] (first compound max 10 µM, 7x7, partner max 10 µM) | -0.0795 | -0.0796 | -0.0413 | -0.0119 | 0.0141 | -0.0052 | -0.0267 | -0.0469 | -0.0353 | -0.0538 | -0.0127 | -0.0712 | -0.0422 | -0.0389 | -0.0432 | -0.0379 | 0.0285 | 0.158 | 0.433 | 0.114
7 | COc1cccc2c1C(=O)c1c(O)c3c(c(O)c1C2=O)C[C@@](O)(C(=O)CO)C[C@@H]3O[C@H]1C[C@H](N)[C@H](O)[C@H](C)O1 [Doxorubicin] + Cc1cc2ncnn2cc1Nc1ncc2c(n1)n(C1CCOCC1)c(=O)n2C [AZD7648] (first compound max 1 µM, 7x7, partner max 10 µM) | 0.0352 | -0.0143 | 0.14 | 0.0765 | 0.0891 | 0.1 | 0.0396 | 0.003 | 0.0055 | -0.0029 | 0.0209 | 0.0216 | 0.0176 | 0.0142 | -0.0228 | 0.0711 | 0.129 | 0.463 | 0.905 | 0.935
8 | COc1cccc(OCCCN)c1-c1cc(Nc2cnc(C#N)cn2)n[nH]1 [Prexasertib] + C=CCn1c(=O)c2cnc(Nc3ccc(N4CCN(C)CC4)cc3)nc2n1-c1cccc(C(C)(C)O)n1 [AZD1775] (first compound max 1 µM, partner max 1 µM) | 0.169 | 0.0807 | 0.0657 | 0.06 | 0.0356 | 0.068 | 0.0398 | -0.0353 | 0.0999 | -0.0285 | 0.0319 | -0.0074 | -0.0358 | 0.0666 | 0.0538 | 0.0832 | 0.0398 | 0.64 | 0.982 | 1
9 | COc1cccc(OCCCN)c1-c1cc(Nc2cnc(C#N)cn2)n[nH]1 [Prexasertib] + CCc1c2c(nc3ccc(O)cc13)-c1cc3c(c(=O)n1C2)COC(=O)[C@]3(O)CC [SN-38] (first compound max 1 µM, 7x7, partner max 0.3 µM) | -0.0065 | -0.0384 | -0.0201 | -0.0197 | -0.0065 | 0.0138 | -0.082 | -0.0408 | 0.0888 | -0.105 | -0.0269 | 0.0111 | 0.0021 | 0.0357 | -0.0204 | 0.0087 | -0.0164 | 0.867 | 0.987 | 1
10 | COc1cccc(OCCCN)c1-c1cc(Nc2cnc(C#N)cn2)n[nH]1 [Prexasertib] + CN(C)CCCOc1ccc(-c2ccc3ncc4c(c3c2)n(C2CCOCC2)c(=O)n4C)cn1 [AZD0156] (first compound max 1 µM, 7x7, partner max 1 µM) | 0.0281 | -0.0146 | -0.0238 | -0.0133 | -0.0718 | -0.0253 | -0.0203 | -0.0512 | -0.0471 | -0.0134 | -0.0139 | -0.0582 | -0.0323 | 0.0003 | -0.0137 | 0.0668 | -0.045 | 0.42 | 0.869 | 1
11 | COc1cccc(OCCCN)c1-c1cc(Nc2cnc(C#N)cn2)n[nH]1 [Prexasertib] + C[C@@H]1COCCN1C2=NC(=NC(=C2)C3(CC3)[S@](=N)(=O)C)C4=C5C=CNC5=NC=C4 [AZD6738] (first compound max 1 µM, 7x7, partner max 10 µM) | 0.0671 | -0.0094 | -0.0127 | -0.0052 | -0.0953 | -0.0231 | -0.0366 | -0.0102 | 0.035 | 0.0155 | 0.0102 | -0.0535 | -0.0323 | 0.0191 | -0.0483 | -0.0092 | -0.0333 | 0.459 | 0.912 | 1
12 | COc1cccc(OCCCN)c1-c1cc(Nc2cnc(C#N)cn2)n[nH]1 [Prexasertib] + Cc1cc2ncnn2cc1Nc1ncc2c(n1)n(C1CCOCC1)c(=O)n2C [AZD7648] (first compound max 1 µM, 7x7, partner max 10 µM) | 0.0374 | 0.0252 | -0.0068 | 0.0087 | -0.0108 | -0.0075 | -0.013 | -0.0463 | -0.0229 | -0.0374 | -0.025 | -0.0908 | -0.0267 | -0.0174 | -0.0628 | -0.0028 | -0.0301 | 0.489 | 0.919 | 1
13 | COc1cccc(OCCCN)c1-c1cc(Nc2cnc(C#N)cn2)n[nH]1 [Prexasertib] + O=C(c1cc(Cc2n[nH]c(=O)c3ccccc23)ccc1F)N1CCN(C(=O)C2CC2)CC1 [Olaparib] (first compound max 1 µM, 7x7, partner max 10 µM) | -0.0896 | -0.0041 | -0.0205 | -0.044 | -0.0683 | -0.0327 | -0.0802 | -0.108 | -0.027 | -0.0325 | -0.0348 | -0.0706 | -0.109 | 0.0226 | -0.157 | -0.0159 | -0.0074 | 0.463 | 0.884 | 1
14 | COc1cc2c(cc1OCCCCCOc1cc3c(cc1OC)C(=O)N1C=C(C)C[C@H]1C=N3)N=C[C@@H]1CC(C)=CN1C2=O [SG3199] + O=C(c1cc(Cc2n[nH]c(=O)c3ccccc23)ccc1F)N1CCN(C(=O)C2CC2)CC1 [Olaparib] (first compound max 0.001 µM, 7x7, partner max 10 µM) | -0.0231 | -0.0378 | -0.0164 | 0.0018 | 0.0663 | 0.025 | 0.002 | -0.001 | -0.0462 | -0.0625 | -0.0263 | -0.0403 | -0.0545 | -0.0291 | -0.0133 | -0.0238 | -0.0422 | 0.139 | 0.193 | 0.112
15 | CCc1c2c(nc3ccc(O)cc13)-c1cc3c(c(=O)n1C2)COC(=O)[C@]3(O)CC [SN-38] + CN(C)CCCOc1ccc(-c2ccc3ncc4c(c3c2)n(C2CCOCC2)c(=O)n4C)cn1 [AZD0156] (first compound max 0.3 µM, 7x7, partner max 1 µM) | 0.05 | -0.0188 | 0.0657 | 0.0402 | -0.0498 | 0.0847 | -0.142 | -0.194 | 0.139 | -0.0202 | -0.0053 | 0.0025 | 0.0021 | -0.0241 | -0.0636 | 0.0182 | 0.0969 | 0.882 | 0.955 | 0.982
